Test results: patent publication US20210300936A1, “PYRAZOLOTRIAZOLOPYRIMIDINE DERIVATIVES AS A2A RECEPTOR ANTAGONIST” (BEIGENE, LTD., priority 2018, published 2021)

Each molecule was assayed against human A2A receptor (A2AR) (Homo sapiens, UniProt P29274) (assay: Luciferase reporter assay (HEK293-A2AR-luc2p/CRE/Hygro cells, 3 nM CGS21680)). Details: 3 nM CGS21680, 5 h incubation.
Format: cell-based
Procedure: HEK293 cells were maintained in Dulbecco's modified Eagle's medium (DMEM, Gibco) supplemented with 10% fetal bovine serum (FBS, Thermo Scientific), 100 units/mL penicillin (Gibco), and 0.1 mg/mL streptomycin (Gibco) in a humidified 37° C. environment with 5% C02. Plasmid encoding wild-type human A2A receptor (A2AR) (in pcDNA3.1) was synthesized by Genscript (Nanjing, China). Transfection of the plasmids was performed in 6-well plates with 4×10^5 cells using Lipofectamin 2000 (ThermoFisher Scientific) according to the instruction of the manufacturer. Cell clones that stably express A2AR were established and maintained in the same complete medium as the HEK293 cells in addition of G-418 (Gibico). Expression level of A2AR in each single cell clone was determined using immunoblotting and FACS method. HEK293-A2AR stable cells were then transfected with pGL4.29[luc2P/CRE/Hygro] (Promega) luciferase reporter plasmid for establishing the HEK293-A2AR-luc2p/CRE/Hygro stable cell line.
HEK293-A2AR-luc2p/CRE/Hygro cells were seeded at a density of 5,000 cells/well in DMEM with 1% FBS and 1 U/mL adenosine deaminase (ADA) (Sigma). After 18 h, the cells were treated with 3 nM CGS21680 plus a series dilution of A2AR antagonist, the compounds disclosed herein at the concentration of 0.1˜10000 nM, prepared in DMEM with 1% FBS. After 5 h incubation, the luciferase activity in cells were measured using the Bright-Glo Luciferase Assay System (Promega) according to manufacturer's instructions. The luminescence signal was measured using a PHERAstar FS plate reader (BMG Labtech). […] Maximal luminescence intensity was determined in the presence of 3 nM CGS21680 and was set as 100%. The IC50 value was calculated from a dose dependent inhibition curve across the range of compound concentrations.

Sequence of human A2A receptor (A2AR) (P29274 whole entry): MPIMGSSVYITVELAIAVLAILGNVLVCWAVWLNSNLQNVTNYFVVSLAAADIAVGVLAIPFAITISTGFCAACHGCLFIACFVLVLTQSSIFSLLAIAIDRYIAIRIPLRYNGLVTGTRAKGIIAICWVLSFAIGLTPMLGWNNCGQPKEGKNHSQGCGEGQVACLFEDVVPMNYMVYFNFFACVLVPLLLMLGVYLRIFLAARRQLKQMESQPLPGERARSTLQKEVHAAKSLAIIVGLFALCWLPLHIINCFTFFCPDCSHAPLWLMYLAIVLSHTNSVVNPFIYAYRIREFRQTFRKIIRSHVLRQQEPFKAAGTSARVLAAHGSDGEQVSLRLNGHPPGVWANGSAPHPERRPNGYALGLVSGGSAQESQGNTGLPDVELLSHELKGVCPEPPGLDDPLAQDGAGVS

IC50 | Compound
43.8 nM | COCCOc1ccc(N2CCN(C(=O)C(COC)n3ncc4c3nc(N)n3nc(-c5ccco5)nc43)CC2)cc1 (stereo not shown) [Compound A26, 2-(5-amino-2-(furan-2-yl)-7H-pyrazolo[4,3-e][1,2,4]triazolo[1,5-c]pyrimidin-7-yl)-3-methoxy-1-(4-(4-(2-methoxyethoxy)phenyl)piperazin-1-yl)propan-1-one]
39.4 nM | COCCOCCOc1ccc(N2CCN(C(=O)C(COC)n3ncc4c3nc(N)n3nc(-c5ccco5)nc43)CC2)cc1 (stereo not shown) [Compound A27, 2-(5-amino-2-(furan-2-yl)-7H-pyrazolo[4,3-e][1,2,4]triazolo[1,5-c]pyrimidin-7-yl)-3-methoxy-1-(4-(4-(2-(2-methoxyethoxy)ethoxy)phenyl)piperazin-1-yl)propan-1-one]
7.6 nM | COCCOc1ccc(N2CCN(C(=O)C(c3ccc(F)cc3)n3ncc4c3nc(N)n3nc(-c5ccco5)nc43)CC2)cc1 (stereo not shown) [Compound A28, 2-(5-amino-2-(furan-2-yl)-7H-pyrazolo[4,3-e][1,2,4]triazolo[1,5-c]pyrimidin-7-yl)-2-(4-fluorophenyl)-1-(4-(4-(2-methoxyethoxy)phenyl)piperazin-1-yl)ethan-1-one]
20.5 nM | COCCOc1ccc(N2CCN(C(=O)C(c3ccc(OC)cc3)n3ncc4c3nc(N)n3nc(-c5ccco5)nc43)CC2)cc1 (stereo not shown) [Compound A29, 2-(5-amino-2-(furan-2-yl)-7H-pyrazolo[4,3-e][1,2,4]triazolo[1,5-c]pyrimidin-7-yl)-1-(4-(4-(2-methoxyethoxy)phenyl)piperazin-1-yl)-2-(4-methoxyphenyl)ethan-1-one]
22 nM | CNCCOc1ccc(N2CCN(C(=O)C(C)n3ncc4c3nc(N)n3nc(-c5ccco5)nc43)CC2)cc1 (stereo not shown) [Compound A30, 2-(5-amino-2-(furan-2-yl)-7H-pyrazolo[4,3-e][1,2,4]triazolo[1,5-c]pyrimidin-7-yl)-1-(4-(4-(2-(methylamino)ethoxy)phenyl)piperazin-1-yl)propan-1-one]
0.6 nM | COCCOc1ccc(N2CCN(C(=O)C(c3ccccc3OC)n3ncc4c3nc(N)n3nc(-c5ccco5)nc43)CC2)cc1 (stereo not shown) [Compound A31, 2-(5-amino-2-(furan-2-yl)-7H-pyrazolo[4,3-e][1,2,4]triazolo[1,5-c]pyrimidin-7-yl)-1-(4-(4-(2-methoxyethoxy)phenyl)piperazin-1-yl)-2-(2-methoxyphenyl)ethan-1-one]
7.2 nM | CCCCC(C(=O)N1CCN(c2ccc(OCCN(C)C)cc2)CC1)n1ncc2c1nc(N)n1nc(-c3ccco3)nc21 (stereo not shown) [Compound A32, 2-(5-amino-2-(furan-2-yl)-7H-pyrazolo[4,3-e][1,2,4]triazolo[1,5-c]pyrimidin-7-yl)-1-(4-(4-(2-(dimethylamino)ethoxy)phenyl)piperazin-1-yl)hexan-1-one]
13.3 nM | COCCOc1ccc(N2CCN(C(=O)C(c3ccc4ccccc4c3)n3ncc4c3nc(N)n3nc(-c5ccco5)nc43)CC2)cc1 (stereo not shown) [Compound A33, 2-(5-amino-2-(furan-2-yl)-7H-pyrazolo[4,3-e][1,2,4]triazolo[1,5-c]pyrimidin-7-yl)-1-(4-(4-(2-methoxyethoxy)phenyl)piperazin-1-yl)-2-(naphthalen-2-yl)ethan-1-one]
75.7 nM | COCCOc1ccc(N2CCN(C(=O)C(c3ccc(C(F)(F)F)cc3)n3ncc4c3nc(N)n3nc(-c5ccco5)nc43)CC2)cc1 (stereo not shown) [Compound A34, 2-(5-amino-2-(furan-2-yl)-7H-pyrazolo[4,3-e][1,2,4]triazolo[1,5-c]pyrimidin-7-yl)-1-(4-(4-(2-methoxyethoxy)phenyl)piperazin-1-yl)-2-(4-(trifluoromethyl)phenyl)ethan-1-one]
5.8 nM | CCCCC(C(=O)N1CCN(c2ccc(OCCNC)cc2)CC1)n1ncc2c1nc(N)n1nc(-c3ccco3)nc21 (stereo not shown) [Compound A35, 2-(5-amino-2-(furan-2-yl)-7H-pyrazolo[4,3-e][1,2,4]triazolo[1,5-c]pyrimidin-7-yl)-1-(4-(4-(2-(methylamino)ethoxy)phenyl)piperazin-1-yl)hexan-1-one]
7.7 nM | COCCOc1ccc(N2CCN(C(=O)C(c3cccc(C(F)(F)F)c3)n3ncc4c3nc(N)n3nc(-c5ccco5)nc43)CC2)cc1 (stereo not shown) [Compound A36, 2-(5-amino-2-(furan-2-yl)-7H-pyrazolo[4,3-e][1,2,4]triazolo[1,5-c]pyrimidin-7-yl)-1-(4-(4-(2-methoxyethoxy)phenyl)piperazin-1-yl)-2-(3-(trifluoromethyl)phenyl)ethan-1-one]
2.5 nM | CN(C)CCOc1ccc(N2CCN(C(=O)C(c3ccccc3)n3ncc4c3nc(N)n3nc(-c5ccco5)nc43)CC2)cc1 (stereo not shown) [Compound A37, 2-(5-amino-2-(furan-2-yl)-7H-pyrazolo[4,3-e][1,2,4]triazolo[1,5-c]pyrimidin-7-yl)-1-(4-(4-(2-(dimethylamino)ethoxy)phenyl)piperazin-1-yl)-2-phenylethan-1-one]
0.6 nM | COCCOc1ccc(N2CCN(C(=O)C(c3ccccc3C(F)(F)F)n3ncc4c3nc(N)n3nc(-c5ccco5)nc43)CC2)cc1 (stereo not shown) [Compound A38, 2-(5-amino-2-(furan-2-yl)-7H-pyrazolo[4,3-e][1,2,4]triazolo[1,5-c]pyrimidin-7-yl)-1-(4-(4-(2-methoxyethoxy)phenyl)piperazin-1-yl)-2-(2-(trifluoromethyl)phenyl)ethan-1-one]
5.3 nM | CCCC(C(=O)N1CCN(c2ccc(OCCN(C)C)cc2)CC1)n1ncc2c1nc(N)n1nc(-c3ccco3)nc21 (stereo not shown) [Compound A39, 2-(5-amino-2-(furan-2-yl)-7H-pyrazolo[4,3-e][1,2,4]triazolo[1,5-c]pyrimidin-7-yl)-1-(4-(4-(2-(dimethylamino)ethoxy)phenyl)piperazin-1-yl)pentan-1-one]
23.7 nM | COCCOc1ccc(N2CCN(C(=O)C(c3ccc(F)c(F)c3)n3ncc4c3nc(N)n3nc(-c5ccco5)nc43)CC2)cc1 (stereo not shown) [Compound A40, 2-(5-amino-2-(furan-2-yl)-7H-pyrazolo[4,3-e][1,2,4]triazolo[1,5-c]pyrimidin-7-yl)-2-(3,4-difluorophenyl)-1-(4-(4-(2-methoxyethoxy)phenyl)piperazin-1-yl)ethan-1-one]
5.8 nM | COCCOc1ccc(N2CCN(C(=O)C(c3cccc(OC)c3)n3ncc4c3nc(N)n3nc(-c5ccco5)nc43)CC2)cc1 (stereo not shown) [Compound A41, 2-(5-amino-2-(furan-2-yl)-7H-pyrazolo[4,3-e][1,2,4]triazolo[1,5-c]pyrimidin-7-yl)-1-(4-(4-(2-methoxyethoxy)phenyl)piperazin-1-yl)-2-(3-methoxyphenyl)ethan-1-one]
5.1 nM | COCCOc1ccc(N2CCN(C(=O)C(c3cccc(F)c3)n3ncc4c3nc(N)n3nc(-c5ccco5)nc43)CC2)cc1 (stereo not shown) [Compound A42, 2-(5-amino-2-(furan-2-yl)-7H-pyrazolo[4,3-e][1,2,4]triazolo[1,5-c]pyrimidin-7-yl)-2-(3-fluorophenyl)-1-(4-(4-(2-methoxyethoxy)phenyl)piperazin-1-yl)ethan-1-one]
0.9 nM | COCCOc1ccc(N2CCN(C(=O)C(c3ccccc3F)n3ncc4c3nc(N)n3nc(-c5ccco5)nc43)CC2)cc1 (stereo not shown) [Compound A43, 2-(5-amino-2-(furan-2-yl)-7H-pyrazolo[4,3-e][1,2,4]triazolo[1,5-c]pyrimidin-7-yl)-2-(2-fluorophenyl)-1-(4-(4-(2-methoxyethoxy)phenyl)piperazin-1-yl)ethan-1-one]
2 nM | COCCOc1ccc(N2CCN(C(=O)C(c3ccccc3)n3ncc4c3nc(N)n3nc(-c5ccco5)nc43)CC2)c(F)c1 (stereo not shown) [Compound A44, 2-(5-amino-2-(furan-2-yl)-7H-pyrazolo[4,3-e][1,2,4]triazolo[1,5-c]pyrimidin-7-yl)-1-(4-(2-fluoro-4-(2-methoxyethoxy)phenyl)piperazin-1-yl)-2-phenylethan-1-one]
6 nM | CCCC(C(=O)N1CCN(c2ccc(F)cc2)CC1)n1ncc2c1nc(N)n1nc(-c3ccco3)nc21 (stereo not shown) [Compound A45, 2-(5-amino-2-(furan-2-yl)-7H-pyrazolo[4,3-e][1,2,4]triazolo[1,5-c]pyrimidin-7-yl)-1-(4-(4-fluorophenyl)piperazin-1-yl)pentan-1-one]
2.9 nM | COCCOc1ccc(N2CCN(C(=O)C(c3ccccc3)n3ncc4c3nc(N)n3nc(-c5ccco5)nc43)C[C@@H]2C)cc1 (stereo partly drawn) [Compound A46, 2-(5-amino-2-(furan-2-yl)-7H-pyrazolo[4,3-e][1,2,4]triazolo[1,5-c]pyrimidin-7-yl)-1-((S)-4-(4-(2-methoxyethoxy)phenyl)-3-methylpiperazin-1-yl)-2-phenylethan-1-one]
2.8 nM | COCCOc1ccc(N2CCN(C(=O)C(c3ccccc3)n3ncc4c3nc(N)n3nc(-c5ccco5)nc43)C[C@H]2C)cc1 (stereo partly drawn) [Compound A47, 2-(5-amino-2-(furan-2-yl)-7H-pyrazolo[4,3-e][1,2,4]triazolo[1,5-c]pyrimidin-7-yl)-1-((R)-4-(4-(2-methoxyethoxy)phenyl)-3-methylpiperazin-1-yl)-2-phenylethan-1-one]
